In BindingDB's records for patent US20250145642 (Kineta, 2025) one finds IC50 data, which are given here for one compound.

The assay concerns the target T1, 1-phosphatidylinositol 3-phosphate 5-kinase [S696N,L932S,Q995L,T998S,S1033A,Q1183K] (Homo sapiens, UniProt Q9Y2I7, L932S/Q1183K/Q995L/S1033A/S696N/T998S).
T1 construct: gene PIKFYVE
The assay can be described thus: PIKfyve Biochemical Assay. How it is done:
The biochemical PIKfyve inhibition assays were run by Carna Biosciences according to proprietary methodology based on the Promega ADP-Glo™ Kinase assay. […] GST-PIKFYVE was purified by using glutathione sepharose chromatography and used in an ADP-Glo™ Kinase assay (Promega). Reactions were set up by adding the test compound solution, substrate solution, ATP solution and kinase solution, each at 4× final concentrations. Reactions were prepared with assay buffer (50 mM MOPS, 1 mM DTT, pH7.2), mixed, and incubated in black 384 well polystyrene plates for 1 hour at room temperature. ADP-Glo™ reagent was then added for 40 minutes, followed by kinase detection reagent for an additional 40 minutes. The kinase activity was evaluated by detecting relative light units on a luminescence plate reader. Samples were run in duplicate from 10 μM to 3 nM. […] IC50 values were calculated from concentration vs % inhibition curves by fitting to a four-parameter logistic curve.

T1 sequence (Q9Y2I7 2-2098 S696N/L932S/Q995L/T998S/S1033A/Q1183K limits assumed): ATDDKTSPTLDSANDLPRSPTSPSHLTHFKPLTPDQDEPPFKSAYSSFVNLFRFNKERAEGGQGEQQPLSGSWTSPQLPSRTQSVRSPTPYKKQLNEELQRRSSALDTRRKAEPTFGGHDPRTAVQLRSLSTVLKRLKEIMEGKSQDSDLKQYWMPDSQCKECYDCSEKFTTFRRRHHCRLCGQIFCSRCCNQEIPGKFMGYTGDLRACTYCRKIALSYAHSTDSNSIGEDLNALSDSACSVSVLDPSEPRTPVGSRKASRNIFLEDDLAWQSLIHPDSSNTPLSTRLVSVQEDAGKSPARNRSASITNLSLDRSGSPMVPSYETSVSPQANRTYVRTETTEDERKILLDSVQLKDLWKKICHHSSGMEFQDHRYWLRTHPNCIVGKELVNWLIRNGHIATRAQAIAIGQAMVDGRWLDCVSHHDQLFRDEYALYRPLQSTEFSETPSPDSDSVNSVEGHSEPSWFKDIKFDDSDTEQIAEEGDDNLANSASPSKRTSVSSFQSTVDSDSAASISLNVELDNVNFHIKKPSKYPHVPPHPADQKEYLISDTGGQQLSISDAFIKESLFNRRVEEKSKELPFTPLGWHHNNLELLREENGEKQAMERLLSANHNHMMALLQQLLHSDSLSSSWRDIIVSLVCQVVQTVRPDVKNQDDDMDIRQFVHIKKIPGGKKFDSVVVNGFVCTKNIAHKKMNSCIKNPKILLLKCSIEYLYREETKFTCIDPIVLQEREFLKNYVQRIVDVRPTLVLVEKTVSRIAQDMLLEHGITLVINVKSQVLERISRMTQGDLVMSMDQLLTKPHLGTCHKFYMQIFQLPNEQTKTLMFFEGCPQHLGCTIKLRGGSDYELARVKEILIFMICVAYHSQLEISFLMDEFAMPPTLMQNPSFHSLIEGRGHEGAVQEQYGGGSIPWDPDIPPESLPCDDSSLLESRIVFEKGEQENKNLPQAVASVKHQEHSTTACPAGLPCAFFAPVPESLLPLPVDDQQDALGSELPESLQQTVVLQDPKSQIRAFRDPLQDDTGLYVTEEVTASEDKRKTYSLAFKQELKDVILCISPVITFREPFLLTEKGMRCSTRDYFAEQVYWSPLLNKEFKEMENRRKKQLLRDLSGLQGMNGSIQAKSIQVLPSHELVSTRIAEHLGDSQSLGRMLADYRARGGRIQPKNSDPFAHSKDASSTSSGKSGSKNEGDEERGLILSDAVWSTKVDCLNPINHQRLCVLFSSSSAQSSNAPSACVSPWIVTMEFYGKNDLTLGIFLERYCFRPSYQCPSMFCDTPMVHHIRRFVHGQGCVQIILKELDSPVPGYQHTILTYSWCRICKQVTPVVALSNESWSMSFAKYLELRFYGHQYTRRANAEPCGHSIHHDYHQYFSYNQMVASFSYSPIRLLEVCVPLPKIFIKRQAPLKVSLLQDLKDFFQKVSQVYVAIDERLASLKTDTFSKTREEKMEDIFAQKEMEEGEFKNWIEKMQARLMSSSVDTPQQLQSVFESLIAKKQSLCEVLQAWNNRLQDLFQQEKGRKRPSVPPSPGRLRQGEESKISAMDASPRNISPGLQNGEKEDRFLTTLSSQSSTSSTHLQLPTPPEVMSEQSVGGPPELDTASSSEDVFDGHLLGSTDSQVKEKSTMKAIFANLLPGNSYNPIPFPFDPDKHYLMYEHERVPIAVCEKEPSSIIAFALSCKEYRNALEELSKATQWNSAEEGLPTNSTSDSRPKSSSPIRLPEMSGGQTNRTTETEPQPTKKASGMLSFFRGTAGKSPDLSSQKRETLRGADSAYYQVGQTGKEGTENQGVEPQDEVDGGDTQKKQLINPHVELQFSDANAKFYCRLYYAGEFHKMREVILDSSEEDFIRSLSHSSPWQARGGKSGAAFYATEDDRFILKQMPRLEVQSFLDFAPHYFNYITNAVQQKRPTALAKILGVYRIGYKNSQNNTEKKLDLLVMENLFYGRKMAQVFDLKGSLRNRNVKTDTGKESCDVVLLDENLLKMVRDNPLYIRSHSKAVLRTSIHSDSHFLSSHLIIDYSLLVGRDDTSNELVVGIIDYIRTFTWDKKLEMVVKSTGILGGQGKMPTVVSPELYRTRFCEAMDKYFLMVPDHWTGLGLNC

One may read the IC50 as the concentration that inhibits the measured activity by half. Lower therefore signals greater potency in that assay. Compound `c1ccc(-c2c[nH]c3c(-c4ccncc4)nc(N4CCOCC4)nc23)cc1` [US20250145642, Compound 135] registered an IC50 below 10 nM.
